Experimental data reported in patent US20080269242A1, “Crystalline Salts of 7-[4-(4-Naphthalen-1-Yl-Piperazin-1-Yl)-Butoxy]-3,4-Dihydro-1H-[1,8]Naphthyridine-2-One” (priority 2005, published 2008).

How the values were obtained:
[1] = Solid-state stability study, open dish; assay type: physicochemical; settings: for solid-state stability (degradation): open dish, 6 month
[2] = tested on: spontaneous locomotor activity (SLMA); test: Spontaneous locomotor activity (SLMA) in rats; assay type: in vivo, Male Sprague-Dawley rats; settings: rat; for SLMA, Mean centimeters traveled in 1 hour±SEM: 60-minute absorption period, recorded 1 hour, vehicle 4066±297
From the text: Effects of 7-[4-(4-naphthalen-1-yl-piperazin-1-yl)-butoxy]-3,4-dihydro-1H-[1,8]naphthyridin-2-one on spontaneous locomotors activity (SLMA) was investigated in an in vivo animal model, which is predictive of antipsychotic efficacy.
Method: Male Sprague-Dawley rats were used in studies where SLMA was quantified using an activity monitor in a sound-attenuated chamber. Rats were randomly assigned to various groups (including a vehicle control group). 7-[4-(4naphthalen-1-yl-piperazin-1-yl)-butoxy]-3,4-dihydro-1H-[1,8]naphthyridin-2-one at doses of 0.1 mg/kg, 0.3 mg/kg, 1 mg/kg, 3 mg/kg, and 10 mg/kg, or vehicle were administered orally. Following a 60-minute absorption period, each rat was placed into the test chamber, and SLMA was recorded for a 1-hour time-period. SLMA is expressed as centimeters traveled. Statistical analysis was performed using a one-way ANOVA followed by a post hoc Dunnett's test.

dopamine D2 receptor = dopamine D2 receptor (Homo sapiens, UniProt P14416); settings: background statement, compound of WO2005/019215; cited from earlier work
D2 receptors = D2 receptors (Homo sapiens, UniProt P14416); settings: background statement, compound of WO2005/019215; cited from earlier work
[3] = Conversion of crystalline form on standing; assay type: physicochemical; settings: ambient temperatures

dopamine D2 receptor, sequence (P14416 whole entry, species assumed): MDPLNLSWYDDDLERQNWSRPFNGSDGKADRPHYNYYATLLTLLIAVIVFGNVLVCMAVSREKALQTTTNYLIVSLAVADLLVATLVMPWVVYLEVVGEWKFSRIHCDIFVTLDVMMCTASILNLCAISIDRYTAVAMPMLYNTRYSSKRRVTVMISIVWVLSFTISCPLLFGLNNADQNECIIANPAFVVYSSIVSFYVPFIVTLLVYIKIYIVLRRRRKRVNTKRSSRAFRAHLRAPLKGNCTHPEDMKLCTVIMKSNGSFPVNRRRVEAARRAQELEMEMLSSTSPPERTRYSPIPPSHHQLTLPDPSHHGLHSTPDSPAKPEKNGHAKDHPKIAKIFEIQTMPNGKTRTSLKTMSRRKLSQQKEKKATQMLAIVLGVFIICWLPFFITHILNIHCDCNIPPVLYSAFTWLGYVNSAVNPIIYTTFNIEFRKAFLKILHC
D2 receptors, sequence (P14416 whole entry, species assumed): as above

SMILES: O=C1CCc2ccc(OCCCCN3CCN(c4cccc5ccccc45)CC3)nc2N1.O=P(O)(O)O [Form A, 7-[4-(4-naphthalen-1-yl-piperazin-1-yl)-butoxy]-3,4-dihydro-1H-[1,8]naphthyridin-2-one mono-phosphate]
- solid-state stability (degradation) ([1]; 25° C./60% relative humidity): little or no degradation
- solid-state stability (degradation) ([1]; 30° C./70% relative humidity): little or no degradation
- solid-state stability (degradation) ([1]; 40° C./75% relative humidity): little or no degradation
- relative stability of crystalline forms ([1]; Form A compared with Form B): more stable than Form B

SMILES: O=C1CCc2ccc(OCCCCN3CCN(c4cccc5ccccc45)CC3)nc2N1 [7-[4-(4-naphthalen-1-yl-piperazin-1-yl)-butoxy]-3,4-dihydro-1H-[1,8]naphthyridin-2-one]
- SLMA, Mean centimeters traveled in 1 hour±SEM ([2]; 0.1 mg/kg orally, not statistically different from vehicle): 3998±133 centimeters
- SLMA, Mean centimeters traveled in 1 hour±SEM ([2]; 0.3 mg/kg orally, p<0.05 vs vehicle): 2510±185 centimeters
- SLMA, Mean centimeters traveled in 1 hour±SEM ([2]; 1 mg/kg orally, p<0.05 vs vehicle): 1977±173 centimeters
- SLMA, Mean centimeters traveled in 1 hour±SEM ([2]; 3 mg/kg orally, p<0.05 vs vehicle): 1742±206 centimeters
- SLMA, Mean centimeters traveled in 1 hour±SEM ([2]; 10 mg/kg orally, p<0.05 vs vehicle): 1068±208 centimeters
- effect on SLMA (in words) ([2]; oral, 0.1-10 mg/kg): dose-dependent reduction
- minimum effective dose (reduction of SLMA) ([2]; oral, estimated): 0.3 mg/kg
- binding to the dopamine D2 receptor (in words) (dopamine D2 receptor): binds
- activity at D2 receptors (in words) (D2 receptors): partial agonist

SMILES: O=C1CCc2ccc(OCCCCN3CCN(c4cccc5ccccc45)CC3)nc2N1.O=P(O)(O)O [Form B, 7-[4-(4-naphthalen-1-yl-piperazin-1-yl)-butoxy]-3,4-dihydro-1H-[1,8]naphthyridin-2-one mono-phosphate]
- form conversion on standing [3]: convert to Form A
